Test results taken from PubChem BioAssay AID248 (DTP/NCI, 2004).
Values joined by “and” are separate entries in the source; they are usually repeats but may differ in a detail not shown here. Equal values may be shown once. Toxic doses and inconclusive results are not listed. Rule as the data show it: active = T/C of 150% or more; inactive = T/C below 125%. Numbered stars: 1 amine (or outer) side, 2 acyl side, 3 side chain; on linkers, the order of the positions; unused ones are H or OH. Bridge positions count the residues as written; N and C are the ends. Square brackets hold non-standard residues; d marks the D form. Peptide text beside a SMILES is read from it. I, II: the chains in the order shown. Actinocin(9to1) = Cc1c2oc3c(C)ccc(C(=O)[*:1])c3nc-2c(C(=O)[*:2])c(N)c1=O; aThr = C[C@H](O)[C@H](N)C(=O)O; NMeV = CN[C@H](C(=O)O)C(C)C; Sar = CNCC(=O)O

System: L1210 leukemia ip in BDF1 mice, survival T/C
Test: NCI In Vivo Anticancer Drug Screen. Data for tumor model L1210 Leukemia (intraperitoneal) in B6D2F1 (BDF1) mice
Conditions: higher = longer survival
Outline: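 Read-out is survival time, reported as the treated-group measurement over the vehicle-control measurement.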

Measured: T/C

Cc1c2oc3c(C)ccc(C(=O)N[C@@H]4C(=O)N[C@H](C(C)C)C(=O)N5CCC[C@H]5C(=O)N(C)CC(=O)N(C)[C@@H](C(C)C)C(=O)O[C@H]4C)c3nc-2c(C(=O)N[C@@H]2C(=O)N[C@H](C(C)C)C(=O)N3CCC[C@H]3C(=O)N(C)CC(=O)N(C)[C@@H](C(C)C)C(=O)O[C@H]2C)c(N)c1=O (I: [aThr][dV]P[Sar][NMeV] / II: [aThr][dV]P[Sar][NMeV]; ester I:1-I:C, II:1-II:C; linker I:N-II:N via Actinocin(9to1))
inactive: endpoint: mean survival time, dose: 0.02 mg/kg/injection, schedule: Q04DX003 (ip), vehicle: water 102 % of control and 105 % of control | endpoint: mean survival time, dose: 0.03 mg/kg/injection, schedule: Q01DX009 (ip), vehicle: saline 111 % of control | endpoint: mean survival time, dose: 0.03 mg/kg/injection, schedule: Q04DX003 (ip), vehicle: water 105 % of control and 110 % of control | endpoint: mean survival time, dose: 0.05 mg/kg/injection, schedule: Q01DX009 (ip), vehicle: saline 111 % of control | endpoint: mean survival time, dose: 0.05 mg/kg/injection, schedule: Q04DX003 (ip), vehicle: other 103 % of control | endpoint: mean survival time, dose: 0.1 mg/kg/injection, schedule: Q01DX009 (ip), vehicle: saline + alcohol 103 % of control | endpoint: mean survival time, dose: 0.11 mg/kg/injection, schedule: Q01DX001 (ip), vehicle: saline 108 % of control | endpoint: mean survival time, dose: 0.12 mg/kg/injection, schedule: Q01DX Z (ip), vehicle: carboxymethylcellulose (CMC) 102 % of control | endpoint: mean survival time, dose: 0.13 mg/kg/injection, schedule: Q01DX009 (ip), vehicle: saline 103 % of control | endpoint: mean survival time, dose: 0.15 mg/kg/injection, schedule: Q02DX010 (ip), vehicle: carboxymethylcellulose (CMC) 104 % of control | endpoint: mean survival time, dose: 0.16 mg/kg/injection, schedule: Q01DX Z (ip), vehicle: carboxymethylcellulose (CMC) 94 % of control | endpoint: mean survival time, dose: 0.16 mg/kg/injection, schedule: Q## X032 (ip), vehicle: saline 107 % of control | endpoint: mean survival time, dose: 0.2 mg/kg/injection, schedule: Q01DX009 (ip), vehicle: saline 109 % of control | endpoint: mean survival time, dose: 0.22 mg/kg/injection, schedule: Q02DX010 (ip), vehicle: other 100 % of control | endpoint: mean survival time, dose: 0.23 mg/kg/injection, schedule: Q02DX010 (ip), vehicle: carboxymethylcellulose (CMC) 92 % of control | endpoint: mean survival time, dose: 0.24 mg/kg/injection, schedule: Q## X032 (ip), vehicle: saline 109 % of control | endpoint: mean survival time, dose: 0.3 mg/kg/injection, schedule: Q## X032 (ip), vehicle: saline 110 % of control | endpoint: mean survival time, dose: 1.0 mg/kg/injection, schedule: Q## X004 (ip), vehicle: saline 101 % of control | endpoint: mean survival time, dose: 0.7 micrograms/kg/injection, schedule: Q01DX009 (ip), vehicle: saline 100 % of control and 104 % of control | endpoint: mean survival time, dose: 0.8 micrograms/kg/injection, schedule: Q01DX Z (ip), vehicle: saline 104 % of control | endpoint: mean survival time, dose: 1.5 micrograms/kg/injection, schedule: Q01DX009 (ip), vehicle: saline 97 % of control and 104 % of control | endpoint: mean survival time, dose: 3.0 micrograms/kg/injection, schedule: Q01DX009 (ip), vehicle: saline 102 % of control and 104 % of control | endpoint: mean survival time, dose: 3.1 micrograms/kg/injection, schedule: Q01DX001 (ip), vehicle: saline 100 % of control | endpoint: mean survival time, dose: 3.2 micrograms/kg/injection, schedule: Q01DX Z (ip), vehicle: saline 107 % of control | endpoint: mean survival time, dose: 3.5 micrograms/kg/injection, schedule: Q01DX009 (ip), vehicle: saline 97 % of control | endpoint: mean survival time, dose: 3.5 micrograms/kg/injection, schedule: Q01DX Z (ip), vehicle: carboxymethylcellulose (CMC) 109 % of control | endpoint: mean survival time, dose: 4.0 micrograms/kg/injection, schedule: Q01DX009 (ip), vehicle: water 103 % of control and 106 % of control | endpoint: mean survival time, dose: 5.4 micrograms/kg/injection, schedule: Q01DX Z (ip), vehicle: carboxymethylcellulose (CMC) 111 % of control | endpoint: mean survival time, dose: 6.3 micrograms/kg/injection, schedule: Q01DX001 (ip), vehicle: saline 107 % of control | endpoint: mean survival time, dose: 12.0 micrograms/kg/injection, schedule: Q01DX006 (iv), vehicle: other 103 % of control | endpoint: mean survival time, dose: 12.0 micrograms/kg/injection, schedule: Q01DX Z (im), vehicle: other 103 % of control | endpoint: mean survival time, dose: 12.0 micrograms/kg/injection, schedule: Q01DX Z (sc), vehicle: other 105 % of control | endpoint: mean survival time, dose: 12.5 micrograms/kg/injection, schedule: Q01DX001 (ip), vehicle: saline 101 % of control | endpoint: mean survival time, dose: 12.5 micrograms/kg/injection, schedule: Q01DX009 (ip), vehicle: water 103 % of control | endpoint: mean survival time, dose: 17.0 micrograms/kg/injection, schedule: Q04DX002 (ip), vehicle: saline 97 % of control and 100 % of control | endpoint: mean survival time, dose: 20.0 micrograms/kg/injection, schedule: Q01DX015 (ip), vehicle: saline 108 % of control | endpoint: mean survival time, dose: 25.0 micrograms/kg/injection, schedule: Q01DX001 (ip), vehicle: saline 111 % of control | endpoint: mean survival time, dose: 25.0 micrograms/kg/injection, schedule: Q01DX009 (ip), vehicle: water 106 % of control | endpoint: mean survival time, dose: 25.0 micrograms/kg/injection, schedule: Q01DX Z (sc), vehicle: other 103 % of control | endpoint: mean survival time, dose: 35.0 micrograms/kg/injection, schedule: Q04DX002 (ip), vehicle: saline 103 % of control and 106 % of control | endpoint: mean survival time, dose: 40.0 micrograms/kg/injection, schedule: Q01DX Z (ip), vehicle: carboxymethylcellulose (CMC) 110 % of control | endpoint: mean survival time, dose: 50.0 micrograms/kg/injection, schedule: Q01DX001 (ip), vehicle: saline 109 % of control | endpoint: mean survival time, dose: 50.0 micrograms/kg/injection, schedule: Q01DX009 (ip), vehicle: water 105 % of control | endpoint: mean survival time, dose: 50.0 micrograms/kg/injection, schedule: Q01DX Z (oral), vehicle: other 111 % of control | endpoint: mean survival time, dose: 60.0 micrograms/kg/injection, schedule: Q01DX Z (ip), vehicle: carboxymethylcellulose (CMC) 100 % of control | endpoint: mean survival time, dose: 64.0 micrograms/kg/injection, schedule: Q01DX001 (ip), vehicle: clinical formulation 107 % of control | endpoint: mean survival time, dose: 64.0 micrograms/kg/injection, schedule: Q01DX001 (ip), vehicle: saline 104 % of control | endpoint: mean survival time, dose: 64.0 micrograms/kg/injection, schedule: Q01DX009 (ip), vehicle: clinical formulation 103 % of control | endpoint: mean survival time, dose: 70.0 micrograms/kg/injection, schedule: Q04DX002 (ip), vehicle: saline 109 % of control | endpoint: mean survival time, dose: 100.0 micrograms/kg/injection, schedule: Q01DX001 (ip), vehicle: saline 109 % of control | endpoint: mean survival time, dose: 100.0 micrograms/kg/injection, schedule: Q01DX009 (ip), vehicle: saline + alcohol 103 % of control | endpoint: mean survival time, dose: 100.0 micrograms/kg/injection, schedule: Q01DX Z (ip), vehicle: other 101 % of control | endpoint: mean survival time, dose: 100.0 micrograms/kg/injection, schedule: Q01DX Z (oral), vehicle: other 107 % of control | endpoint: mean survival time, dose: 128.0 micrograms/kg/injection, schedule: Q01DX001 (ip), vehicle: clinical formulation 109 % of control | endpoint: mean survival time, dose: 128.0 micrograms/kg/injection, schedule: Q01DX001 (ip), vehicle: saline 109 % of control | endpoint: mean survival time, dose: 140.0 micrograms/kg/injection, schedule: Q04DX002 (ip), vehicle: saline 93 % of control and 102 % of control | endpoint: mean survival time, dose: 280.0 micrograms/kg/injection, schedule: Q04DX002 (ip), vehicle: saline 106 % of control | endpoint: mean survival time, dose: 512.0 micrograms/kg/injection, schedule: Q04DX003 (ip), vehicle: water 100 % of control | endpoint: mean survival time, dose: 570.0 micrograms/kg/injection, schedule: Q04DX002 (ip), vehicle: saline 100 % of control | endpoint: median survival time, dose: 0.01 mg/kg/injection, schedule: Q01DX009 (ip), vehicle: water 107 % of control | endpoint: median survival time, dose: 0.02 mg/kg/injection, schedule: Q01DX009 (ip), vehicle: water 109 % of control (2×) and 110 % of control | endpoint: median survival time, dose: 0.03 mg/kg/injection, schedule: Q04DX003 (ip), vehicle: water 100 % of control | endpoint: median survival time, dose: 0.05 mg/kg/injection, schedule: Q01DX001 (ip), vehicle: saline 98 % of control | endpoint: median survival time, dose: 0.05 mg/kg/injection, schedule: Q01DX002 (ip), vehicle: saline 111 % of control | endpoint: median survival time, dose: 0.06 mg/kg/injection, schedule: Q01DX001 (ip), vehicle: water 100 % of control | endpoint: median survival time, dose: 0.06 mg/kg/injection, schedule: Q04DX003 (ip), vehicle: water 107 % of control | endpoint: median survival time, dose: 0.06 mg/kg/injection, schedule: Q08DX002 (ip), vehicle: water 94 % of control | endpoint: median survival time, dose: 0.08 mg/kg/injection, schedule: Q01DX009 (ip), vehicle: water 108 % of control | endpoint: median survival time, dose: 0.1 mg/kg/injection, schedule: Q01DX001 (ip), vehicle: saline 102 % of control | endpoint: median survival time, dose: 0.12 mg/kg/injection, schedule: Q01DX001 (ip), vehicle: water 111 % of control | endpoint: median survival time, dose: 0.12 mg/kg/injection, schedule: Q08DX002 (ip), vehicle: water 105 % of control | endpoint: median survival time, dose: 0.2 mg/kg/injection, schedule: Q01DX001 (ip), vehicle: saline 109 % of control | endpoint: median survival time, dose: 0.4 mg/kg/injection, schedule: Q01DX001 (ip), vehicle: saline 111 % of control | endpoint: median survival time, dose: 0.5 mg/kg/injection, schedule: Q04DX003 (ip), vehicle: water 96 % of control | endpoint: median survival time, dose: 4.0 micrograms/kg/injection, schedule: Q03HX016 (ip), vehicle: water 94 % of control | endpoint: median survival time, dose: 8.0 micrograms/kg/injection, schedule: Q03HX008 (ip), vehicle: water 100 % of control | endpoint: median survival time, dose: 8.0 micrograms/kg/injection, schedule: Q03HX016 (ip), vehicle: water 111 % of control | endpoint: median survival time, dose: 16.0 micrograms/kg/injection, schedule: Q03HX008 (ip), vehicle: water 111 % of control | endpoint: median survival time, dose: 16.0 micrograms/kg/injection, schedule: Q03HX016 (ip), vehicle: water 100 % of control | endpoint: median survival time, dose: 31.0 micrograms/kg/injection, schedule: Q03HX016 (ip), vehicle: water 100 % of control | endpoint: median survival time, dose: 200.0 micrograms/kg/injection, schedule: Q01DX009 (ip), vehicle: saline 93 % of control
